Measured values published in patent US9278962B2 (Cytokinetics, Inc., priority 2011, dated 2016).

Each molecule was assayed on rabbit skeletal myofibrils (approximately 90% fast fibers) (assay: Activation of fast skeletal myofibrils (PUMA coupled-enzyme ATPase assay, AC1.4)). Conditions: Table 2; concentration at which the compound increased enzymatic activity by 40%; calcium at pCa25.
Format: biochemical
Method: Rabbit skeletal myofibrils were prepared based upon the method of Herrmann et al. (Biochem. 32(28):7255-7263(1993). Myofibrils were prepared from rabbit psoas muscle purchased from Pel-Freez Biologicals (Arkansas) within 2 days of ordering, stored on ice. Minced muscle was homogenized in 10 volumes of ice-cold “standard” buffer (50 mM Tris, pH 7.4, 0.1 M potassium acetate, 5 mM KCl, 2 mM DTT, 0.2 mM PMSF, 10 μM leupeptin, 5 μM pepstatin, and 0.5 mM sodium azide) containing 5 mM EDTA and 0.5% Triton X-100 using an Omni-Macro homogenizer. Myofibrils were recovered by low speed centrifugation (3000 rpm for 10 minutes) and washed 2 times in the Triton X-100 containing buffer to ensure removal of cellular membrane. Following the Triton washes, myofibrils were washed 3 times in “standard” buffer containing 2 mM magnesium acetate. A final wash in assay buffer (12 mM PIPES, pH 6.8, 60 mM KCl, 1 mM DTT) was performed and brought to 10% sucrose for flash freezing in liquid nitrogen and storage at −80° C.
Fast fiber activators were identified by measuring the enzymatic activity of muscle myofibril preparations using the proprietary PUMA™ (see, e.g., U.S. Pat. Nos. 6,410,254, 6,743,599, 7,202,051, and 7,378,254) assay system. Myofibril preparations consisted of rabbit skeletal muscle (approximately 90% fast fibers) that had been mechanically homogenized and washed with a detergent (triton X-100) to remove cellular membranes. This preparation retained all of the sarcomeric components in a native conformation and the enzymatic activity was still regulated by calcium. Compounds were tested using a myofibril suspension and a level of calcium sufficient to increase enzymatic activity of the myofibrils to 25% of their maximal rate (termed pCa25). Enzymatic activity was tracked via a pyruvate kinase and lactate dehydrogenase-coupled enzyme system. This assay regenerates myosin-produced ADP into ATP by oxidizing NADH, producing an absorbance change at 340 nm. The buffering system was 12 mM Pipes, 2 mM MgCl2, 1 mM DTT at pH 6.8 (PM12 buffer).
Using procedures similar to those described herein, utilizing reagents and intermediates commercially available (e.g., Sigma-Aldrich) or readily synthesized by one of skill in the art, the compounds in Table 2, Table 3, Table 4 and Table 5 were synthesized, characterized and tested. AC1.4 values were determined according to the procedure described in Example 6, and the reported median AC1.4 values are as follows: A=<1 uM; B=1-10 uM; C=10-20 uM; D=>20 uM.

Mean AC1.4 | Compound
B (B=1-10 uM) | CC(C)(CNc1nc(-c2ccc(F)cc2)ns1)c1ccc(F)cc1 [[3-(4-fluorophenyl)(1,2,4-thiadiazol-5-yl)][2-(4-fluorophenyl)-2-methylpropyl]amine]
D (D=>20 uM) | COc1cccc(Cc2nsc(NCCc3cccc(C(F)(F)F)c3)n2)c1 [{3-[(3-methoxyphenyl)methyl](1,2,4-thiadiazol-5-yl)}{2-[3-(trifluoromethyl)phenyl]ethyl}amine]
D (D=>20 uM) | COc1cccc(Cc2nsc(NCCc3cc(F)cc(F)c3)n2)c1 [[2-(3,5-difluorophenyl)ethyl]{3-[(3-methoxyphenyl)methyl](1,2,4-thiadiazol-5-yl)}amine]
A (A=<1 uM) | COc1cccc(Cc2nsc(NCC(C)c3ccc(Cl)cc3)n2)c1 (stereo not drawn) [[2-(4-chlorophenyl)propyl]{3-[(3-methoxyphenyl)methyl](1,2,4-thiadiazol-5-yl)}amine]
B (B=1-10 uM) | Cc1ccc(Cc2nsc(NCCc3cccc(Cl)c3)n2)cc1 [[2-(3-chlorophenyl)ethyl]{3-[(4-methylphenyl)methyl](1,2,4-thiadiazol-5-yl)}amine]
B (B=1-10 uM) | CC(C)(CNc1nc(-c2ccc(CO)cc2)ns1)c1ccc(F)cc1 [[4-(5-{[2-(4-fluorophenyl)-2-methylpropyl]amino}-1,2,4-thiadiazol-3-yl)phenyl]methan-1-ol]
B (B=1-10 uM) | CC(C)(CNc1nc(-c2cccnc2)ns1)c1ccc(F)cc1 [[2-(4-fluorophenyl)-2-methylpropyl](3-(3-pyridyl)(1,2,4-thiadiazol-5-yl))amine]
B (B=1-10 uM) | CC(C)(O)CCc1nsc(NCC(C)(C)c2ccc(F)cc2)n1 [4-(5-{[2-(4-fluorophenyl)-2-methylpropyl]amino}(1,2,4-thiadiazol-3-yl))-2-methylbutan-2-ol]
D (D=>20 uM) | COc1ccc(CCNc2nc(Cc3ccc(F)cc3)ns2)cc1 [{3-[(4-fluorophenyl)methyl](1,2,4-thiadiazol-5-yl)}[2-(4-methoxyphenyl)ethyl]amine]
D (D=>20 uM) | COc1cccc(Cc2nsc(NCCc3nc(C)cs3)n2)c1 [{3-[(3-methoxyphenyl)methyl](1,2,4-thiadiazol-5-yl)}[2-(4-methyl(1,3-thiazol-2-yl))ethyl]amine]
B (B=1-10 uM) | COc1cccc(Cc2nsc(NC[C@H](C)c3ccc(F)cc3)n2)c1 [[(2R)-2-(4-fluorophenyl)propyl]{3-[(3-methoxyphenyl)methyl](1,2,4-thiadiazol-5-yl)}amine]
D (D=>20 uM) | Cc1ccc(Cc2nsc(NCCc3ccccc3Cl)n2)cc1 [[2-(2-chlorophenyl)ethyl]{3-[(4-methylphenyl)methyl](1,2,4-thiadiazol-5-yl)}amine]
D (D=>20 uM) | Clc1ccc(Cc2nsc(NCCc3cccc(Cl)c3)n2)cc1 [[2-(3-chlorophenyl)ethyl]{3-[(4-chlorophenyl)methyl](1,2,4-thiadiazol-5-yl)}amine]
B (B=1-10 uM) | CC(C)(CNc1nc(-c2ccccc2O)ns1)c1ccc(F)cc1 [2-(5-{[2-(4-fluorophenyl)-2-methylpropyl]amino}-1,2,4-thiadiazol-3-yl)phenol]
A (A=<1 uM) | CC(C)(CNc1nc(-c2ccc(F)c(C(N)=O)c2)ns1)c1ccc(F)cc1 [2-fluoro-5-(5-{[2-(4-fluorophenyl)-2-methylpropyl]amino}(1,2,4-thiadiazol-3-yl))benzamide]
A (A=<1 uM) | CC(C)(CNc1nc(-c2ccc(O)cc2)ns1)c1ccc(F)cc1 [4-(5-{[2-(4-fluorophenyl)-2-methylpropyl]amino}-1,2,4-thiadiazol-3-yl)phenol]
B (B=1-10 uM) | CC(CNc1nc(Cc2ccc(F)cc2)ns1)c1ccc(Cl)cc1 (stereo not drawn) [[2-(4-chlorophenyl)propyl]{3-[(4-fluorophenyl)methyl](1,2,4-thiadiazol-5-yl)}amine]
C (C=10-20 uM) | CC(C)(CNc1nc(CCC(N)=O)ns1)c1ccc(F)cc1 [3-(5-{[2-(4-fluorophenyl)-2-methylpropyl]amino}-1,2,4-thiadiazol-3-yl)propanamide]
C (C=10-20 uM) | CC(C)(CNc1nc(CCC(=O)NCCO)ns1)c1ccc(F)cc1 [3-(5-{[2-(4-fluorophenyl)-2-methylpropyl]amino}(1,2,4-thiadiazol-3-yl))-N-(2-hydroxyethyl)propanamide]

Same assay, conditions: Table 3; concentration at which the compound increased enzymatic activity by 40%; calcium at pCa25

Mean AC1.4 | Compound
A (A=<1 uM) | NC(=O)c1cccc(-c2nnc(NCC3(c4ncccc4F)CCC3)s2)c1 [3-(5-((1-(3-fluoropyridin-2-yl)cyclobutyl)methylamino)-1,3,4-thiadiazol-2-yl)benzamide]
A (A=<1 uM) | CCc1ccc(F)c(-c2nnc(NC[C@]3(c4ncccc4F)C[C@H](F)C3)s2)c1 [5-(5-ethyl-2-fluorophenyl)-N-((3-fluoro-1-(3-fluoropyridin-2-yl)cyclobutyl)methyl)-1,3,4-thiadiazol-2-amine]
A (A=<1 uM) | Cc1ccc(Br)cc1-c1nnc(NC[C@]2(c3ncccc3F)C[C@@H](F)C2)s1 [5-(5-bromo-2-methylphenyl)-N-(((cis)-3-fluoro-1-(3-fluoropyridin-2-yl)cyclobutyl)methyl)-1,3,4-thiadiazol-2-amine]
B (B=1-10 uM) | CSc1ncc(C)c(-c2nnc(NC[C@]3(c4ncccc4F)C[C@H](F)C3)s2)n1 [N-((3-fluoro-1-(3-fluoropyridin-2-yl)cyclobutyl)methyl)-5-(5-methyl-2-(methylthio)pyrimidin-4-yl)-1,3,4-thiadiazol-2-amine]
A (A=<1 uM) | NC(=O)c1ccc(F)c(-c2nnc(NCC3(c4ncccc4F)CCC3)s2)c1 [4-fluoro-3-(5-((1-(3-fluoropyridin-2-yl)cyclobutyl)methylamino)-1,3,4-thiadiazol-2-yl)benzamide]
B (B=1-10 uM) | Fc1cccnc1C1(CNc2nnc(-c3cscn3)s2)CCC1 [N-((1-(3-fluoropyridin-2-yl)cyclobutyl)methyl)-5-(thiazol-4-yl)-1,3,4-thiadiazol-2-amine]
B (B=1-10 uM) | Fc1cccnc1[C@]1(CNc2nnc(-c3ccc(Br)s3)s2)C[C@@H](F)C1 [5-(5-bromothiophen-2-yl)-N-(((trans)-3-fluoro-1-(3-fluoropyridin-2-yl)cyclobutyl)methyl)-1,3,4-thiadiazol-2-amine]
B (B=1-10 uM) | N#Cc1ccccc1-c1nnc(NCC2(c3ncccc3F)CCC2)s1 [2-(5-((1-(3-fluoropyridin-2-yl)cyclobutyl)methylamino)-1,3,4-thiadiazol-2-yl)benzonitrile]

Same assay, conditions: Table 4; concentration at which the compound increased enzymatic activity by 40%; calcium at pCa25

Mean AC1.4 | Compound
A (A=<1 uM) | CC(C)(O)c1ccc2nc(NCC(C)(C)c3ccc(F)cc3)sc2c1 [2-(2-(2-(4-fluorophenyl)-2-methylpropylamino)benzo[d]thiazol-6-yl)propan-2-ol]
B (B=1-10 uM) | CNC(=O)c1ccc2nc(NCC(C)(C)c3ccc(F)cc3)sc2c1 [2-(2-(4-fluorophenyl)-2-methylpropylamino)-N-methylbenzo[d]thiazole-6-carboxamide]
B (B=1-10 uM) | CC(C)(CNc1nc2cccc(C(N)=O)c2s1)c1ccc(F)cc1 [2-(2-(4-fluorophenyl)-2-methylpropylamino)benzo[d] thiazole-7-carboxamide]
B (B=1-10 uM) | N#Cc1cc(Cl)c2nc(NCC3(c4ncccc4F)CCC3)sc2c1 [4-chloro-2-((1-(3-fluoropyridin-2-yl)cyclobutyl)methylamino)benzo[d] thiazole-6-carbonitrile]
A (A=<1 uM) | N#Cc1ccc2nc(NCC3(c4ccc(F)cc4)CCC3)sc2c1 [2-((1-(4-fluorophenyl)cyclobutyl)methylamino) benzo[d]thiazole-6-carbonitrile]
B (B=1-10 uM) | Clc1ccc2nc(NCC3(c4ccccn4)CCC3)sc2c1 [6-chloro-N-((1-(pyridin-2-yl)cyclobutyl)methyl)benzo[d] thiazol-2-amine]
B (B=1-10 uM) | COc1cccnc1C1(CNc2nc3ccc(C(N)=O)cc3s2)CCC1 [2-((1-(3-methoxypyridin-2-yl)cyclobutyl)methylamino)benzo[d] thiazole-6-carboxamide]
D (D=>20 uM) | NC(=O)c1cccc2sc(NC[C@]3(c4ncccc4F)C[C@H](F)C3)nc12

Same assay, conditions: Table 5; concentration at which the compound increased enzymatic activity by 40%; calcium at pCa25

Mean AC1.4 | Compound
C (C=10-20 uM) | CC(C)(CNc1nc(-c2cccnc2)no1)c1ccc(F)cc1 [N-(2-(4-fluorophenyl)-2-methylpropyl)-3-(pyridin-3-yl)-1,2,4-oxadiazol-5-amine]
